Assays:
H₁-receptor [1] = molecular target: T1, H₁-receptor (Cavia porcellus, UniProt P31389); assay: Reduction of histamine-induced contraction of isolated guinea pig ileum; format: cell-based, guinea pigs; conditions: test drug 1 × 10⁻⁷M in the presence of histamine 1 × 10⁻⁶M; guinea pig terminal ileum; quadruplicate sets of tissues; read-out: percent reduction in tissue contraction
T1 construct: Fresh segments of terminal ileum immediately proximal to Peyer's patch, obtained from male Buckshire guinea pigs; from tissue; host or cells: guinea pig terminal ileum segments
Experimental: The compounds of this invention were established to be histamine H₁-antagonists by subjecting them to the following standard test procedures for H₁-blocking activity:
Fresh segments of terminal ileum immediately proximal to Peyer's patch, obtained from male Buckshire guinea pigs, were suspended in 37°C Tyrode's solution in a tissue bath and aerated. The tissue segments were placed under one gram tension and allowed to equilibrate for one hour. Histamine was added to each tissue bath to a final concentration of 1 × 10⁻⁶M. The contraction response after it equilibrated was noted as grams tension. Test drug was added, in the presence of histamine, to each bath to a final concentration of 1 × 10⁻⁷M. The change in grams tension was noted and the percent reduction in grams tension calculated.

H₁-receptor [2] = molecular target: T1, H₁-receptor; assay: Shift of the histamine dose-response curve in ileum tissue; format: cell-based, guinea pigs; conditions: ileum tissues
[3] = test system: histamine-induced death in guinea pigs; assay: Protection against histamine-induced death after oral pretreatment; format: in vivo

T1 sequence (P31389 whole entry): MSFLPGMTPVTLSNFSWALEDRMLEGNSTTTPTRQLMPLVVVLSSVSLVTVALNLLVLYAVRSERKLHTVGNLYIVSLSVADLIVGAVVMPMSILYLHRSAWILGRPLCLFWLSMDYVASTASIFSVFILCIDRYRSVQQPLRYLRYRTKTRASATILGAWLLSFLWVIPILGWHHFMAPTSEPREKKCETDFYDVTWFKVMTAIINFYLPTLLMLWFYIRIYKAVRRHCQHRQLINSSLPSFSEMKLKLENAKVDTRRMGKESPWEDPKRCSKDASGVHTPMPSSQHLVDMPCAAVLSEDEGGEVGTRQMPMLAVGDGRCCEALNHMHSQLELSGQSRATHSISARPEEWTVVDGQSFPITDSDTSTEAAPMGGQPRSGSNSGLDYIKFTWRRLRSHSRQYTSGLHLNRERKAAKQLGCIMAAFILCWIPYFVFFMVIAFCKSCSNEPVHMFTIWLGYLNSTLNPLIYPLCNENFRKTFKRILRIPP

| SMILES | inhibition at 0.1 µM (H₁-receptor [1]) | Kb (H₁-receptor [2]; calculated via formula from the dose-response curve shift at 10⁻⁸M compound, read-out: histamine H₁antagonist potency) | shift of histamine dose-response curve (H₁-receptor [2]; compound at 10⁻⁸M) | Percent Survival ([3]; 0.5 mg/kg p.o., 18 Hours pretreatment, Trial5) | Percent Survival ([3]; 0.5 mg/kg p.o., 18 Hours pretreatment, Trial 6) | Percent Survival ([3]; 1.0 mg/kg p.o., 1 Hour pretreatment, Trial 1) | Percent Survival ([3]; 1.0 mg/kg p.o., 1 Hour pretreatment, Trial 2) | Percent Survival ([3]; 1.0 mg/kg p.o., 1 Hour pretreatment, Trial 3) | Percent Survival ([3]; 1.0 mg/kg p.o., 2 Hours pretreatment, Trial 3) | Percent Survival ([3]; 1.0 mg/kg p.o., 2 Hours pretreatment, Trial 4) | Percent Survival ([3]; 1.0 mg/kg p.o., 18 Hours pretreatment, Trial5) | Percent Survival ([3]; 5.0 mg/kg p.o., 1 Hour pretreatment, Trial 1) | Percent Survival ([3]; 10.0 mg/kg p.o., 2 Hours pretreatment, Trial 4) |
| --- | --- | --- | --- | --- | --- | --- | --- | --- | --- | --- | --- | --- | --- |
| Cn1c(=O)c2c(ncn2CCCN2CCC(OC(c3ccccc3)c3ccccc3)CC2)n(C)c1=O [Example 1, 7-[3-(4-Diphenylmethoxy)-1-piperidinyl]propyl-3,7-dihydro-1,3-dimethyl-1H-purine-2,6-dione] | 92% | 290 pM | marked, parallel shift of the curve to the right | 70% | 40% | 40% | 10% | 40% | 70% | 70% | 80% | 80% | 60% |
| Cn1c(=O)c2c(ncn2CCN2CCC(OC(c3ccc(F)cc3)c3ccc(F)cc3)CC2)n(C)c1=O [Example 4, 7-[2-[4-Bis(4-fluorophenyl)methoxy]-1-piperidinyl]ethyl-3,7-dihydro-1,3-dimethyl-1H-purine-2,6-dione] | 62% |  |  |  |  |  |  |  |  |  |  |  |  |
